From patent US9999222B2, “Herbicidal combination comprising azines” (BASF SE, priority 2014, dated 2018) come the findings set out here.

“And” between values parts separate entries of the source, which are not always exact repeats. Equal entries are not always repeated. Where two headings read alike, the source gives them in different places.

Holding throughout (assay): Greenhouse test, pre-emergence treatment
The subject of one experiment is COMBE. The class given is in vivo, Commelina benghalensis. The note with it: Commelina benghalensis, pre-emergence, 480 h. From the text: (§1) The culture containers used were plastic flowerpots containing loamy sand with approximately 3.0% of humus as the substrate. The seeds of the test plants were sown separately for each species.
(§2) For the pre-emergence treatment, the active ingredients, which had been suspended or emulsified in water, were applied directly after sowing by means of finely distributing nozzles. The containers were irrigated gently to promote germination and growth and subsequently covered with transparent plastic hoods until the plants had rooted. This cover caused uniform germination of the test plants, unless this had been impaired by the active ingredients.
(§3) Depending on the species, the plants were kept at 10-25° C. or 20-35° C., respectively.
(§4) The test period extended over 2 to 4 weeks. During this time, the plants were tended, and their response to the individual treatments was evaluated.
(§5) Evaluation was carried out using a scale from 0 to 100. 100 means no emergence of the plants, or complete destruction of at least the aerial moieties, and 0 means no damage, or normal course of growth. A moderate herbicidal activity is given at values of at least 60, a good herbicidal activity is given at values of at least 70, and a very good herbicidal activity is given at values of at least 85.
(§6) The respective stated components a and b, and if appropriate, c were formulated as a 10% by weight strength emulsion concentrate and, with addition of the amount of solvent system, introduced into the spray liquor used for applying the active compound.
(§7) In the examples, the solvent used was water.
(§8) In the examples below, using the method of S. R. Colby (1967) “Calculating synergistic and antagonistic responses of herbicide combinations”, Weeds 15, p. 22ff., the value E, which is expected if the activity of the individual active compounds is only additive, was calculated. E=X+Y−(X·Y/100) where • X=percent activity using active compound a at an application rate A; • Y=percent activity using active compound b at an application rate B; • E=expected activity (in %) by a+b at application rates A+B.
(§9) If the value found experimentally is higher than the value E calculated according to Colby, a synergistic effect is present.

Another experiment relates to POLCO. The experiment is classed as in vivo, Polygonum convolvulus. The note with it: pre-emergence.
Excerpt: as §1, §2, §3, §4, §5, §6, §7, §8, §9

A further experiment has as its system SIDRH. The experiment is classed as in vivo, Sida rhombifolia. Conditions: Sida rhombifolia, pre-emergence, 480 h.
Excerpt: as §1, §2, §3, §4, §5, §6, §7, §8, §9

For another experiment, the system named is ABUTH. The class given is in vivo, Abutilon theophrasti. Conditions: Abutilon theophrasti, 480 h.
Excerpt: as §1, §2, §3, §4, §5, §6, §7, §8, §9

The next experiment deals with GERPU. The class given is in vivo, Geranium pusillum. Conditions: Geranium pusillum, pre-emergence, 480 h.
Excerpt: as §1, §2, §3, §4, §5, §6, §7, §8, §9

In a further experiment the test system is IPOHE. The class given is in vivo, Ipomoea hederacea. The note with it: Ipomoea hederacea, 480 h, 750 g ai/ha, 20 DAT, read-out: observed % activity.
Excerpt: as §1, §2, §3, §4, §5, §6, §7, §8, §9

In the next experiment the test system is EPHHL. The class given is in vivo, Euphorbia heterophylla. The note with it: EPHHL, pre-emergence, individual.
Excerpt: as §1, §2, §3, §4, §5, §6, §7, §8, §9

A further experiment relates to KCHSC. The experiment is classed as in vivo, Kochia scoparia. Conditions: pre-emergence.
Excerpt: as §1, §2, §3, §4, §5, §6, §7, §8, §9

Another experiment relates to CENCY. The class given is in vivo. Conditions: 480 h, individual, read-out: observed % activity 20 DAT.
In a further experiment the test system is GALAP. The class given is in vivo, Galium aparine. Conditions: pre-emergence.
Excerpt: as §1, §2, §3, §4, §5, §6, §7, §8, §9

A further experiment has as its system ALOMY. The class given is in vivo, Alopecurus myosuroides. The note with it: Alopecurus myosuroides, pre-emergence, 480 h.
Excerpt: as §1, §2, §3, §4, §5, §6, §7, §8, §9

For another experiment, the system named is SETFA. The class given is in vivo, Setaria faberi. The note with it: SETFA, use rate 25 g ai/ha, 20 DAT.
Excerpt: as §1, §2, §3, §4, §5, §6, §7, §8, §9

Setting [1] is: 375 g ai/ha, 20 DAT, read-out: observed % activity.
Where [2] appears, read: 750 g ai/ha, 20 DAT, read-out: observed % activity.

With `CC(C)c1ccc(NC(=O)N(C)C)cc1` [Isoproturon, isoproturon], the inhibition at 375 g/ha is 0% in the experiment with COMBE (setting [1]); 0% in the experiment on POLCO (Fallopia convolvulus, 480 h, 375 g ai/ha, 20 DAT, read-out: observed % activity); 0% with SIDRH (setting [1]); 20% with ABUTH (setting [1]); 20% in the experiment with GERPU (setting [1]). In addition, the inhibition at 750 g/ha with COMBE (setting [2]) worked out at 45%; with POLCO (Fallopia convolvulus, 480 h, 750 g ai/ha, 20 DAT, read-out: observed % activity), 25%; with ABUTH (setting [2]), 65%; with GERPU (setting [2]), 40%; in the experiment with IPOHE, 40%; in the experiment on KCHSC (Bassia scoparia, 480 h, 750 g ai/ha, 20 DAT, read-out: observed % activity) it was 98%. Besides, the inhibition at 250 g/ha in the experiment with COMBE (COMBE, individual, use rate 250 g ai/ha, read-out: observed % activity 20 DAT) worked out at 0%; in the experiment on POLCO (Fallopia convolvulus, 480 h, POLCO, individual, use rate 250 g ai/ha, read-out: observed % activity 20 DAT), 10%; with SIDRH (SIDRH, individual, use rate 250 g ai/ha, read-out: observed % activity 20 DAT), 0%; in the experiment with ABUTH (ABUTH, individual, use rate 250 g ai/ha, read-out: observed % activity 20 DAT), 50%; in the experiment with KCHSC (Bassia scoparia, 480 h, KCHSC, individual, use rate 250 g ai/ha, read-out: observed % activity 20 DAT) it was 98%; with CENCY (use rate 250 g ai/ha), 30%. Further, the inhibition at 250 g/ha in the experiment on GALAP (Galium aparine, 480 h, GALAP, individual, use rate 250 g ai/ha, read-out: observed % activity 20 DAT) was determined as 30%. Also, the inhibition at 500 g/ha with COMBE (COMBE, individual, use rate 500 g ai/ha, read-out: observed % activity 20 DAT) came out at 10%; in the experiment on SIDRH (SIDRH, individual, use rate 500 g ai/ha, read-out: observed % activity 20 DAT), 40%; in the experiment on ABUTH (ABUTH, individual, use rate 500 g ai/ha, read-out: observed % activity 20 DAT) it was 15%; in the experiment on GERPU (GERPU, individual, use rate 500 g ai/ha, read-out: observed % activity 20 DAT), 0%; in the experiment with EPHHL (Euphorbia heterophylla, 480 h, use rate 500 g ai/ha, read-out: observed % activity 20 DAT), 35%; with KCHSC (Bassia scoparia, 480 h, KCHSC, individual, use rate 500 g ai/ha, read-out: observed % activity 20 DAT), 98%. Also, the inhibition at 500 g/ha in the experiment on CENCY (use rate 500 g ai/ha) stood at 30%. In addition, the “observed % activity 20 DAT” value with EPHHL (use rate 250 g ai/ha) was 10% and 25%; with GALAP (GALAP, individual, use rate 500 g ai/ha), 65% and 15%.

As for `O=C(O)CNCP(=O)(O)O` [Glyphosate, glyphosate], in the experiment with ALOMY (read-out: observed % activity 20 DAT), the inhibition at 125 g/ha was 0%.

`O=C(Nc1ccc(F)cc1)c1cccc(Oc2cccc(C(F)(F)F)c2)n1` [Picolinafen, picolinafen]: the “observed % activity 20 DAT” value in the experiment on POLCO (POLCO, use rate 25 g ai/ha, 20 DAT) was 0%; with POLCO (POLCO, use rate 50 g ai/ha, 20 DAT) it was 0%; in the experiment on KCHSC (KCHSC, use rate 50 g ai/ha, 20 DAT), 30%; in the experiment on SETFA, 10%.

Turning to `CCOCN(C(=O)CCl)c1c(C)cccc1CC` [acetochlor], the inhibition at 125 g/ha was determined as 0% in the experiment on ALOMY (125 g ai/ha, 20 DAT, read-out: observed % activity); 0% with KCHSC (Bassia scoparia, 480 h, 125 g ai/ha, 20 DAT, read-out: observed % activity); 60% in the experiment with GALAP (Galium aparine, 480 h, 125 g ai/ha, 20 DAT, read-out: observed % activity).
